Assay results published in patent US6548449B1, “Substituted phenyluracils with herbicidal effect” (Bayer Aktiengesellschaft, priority 1998, dated 2003).

Assays:
[1] = tested on: weeds; test: Pre-emergence test, activity against weeds; format: in vivo; details: soil sprayed about 24 hours after sowing, rated after three weeks vs untreated control
Experimental: (§1) Solvent: 5 parts by weight of acetone
(§2) Emulsifier: 1 part by weight of alkylaryl polyglycol ether
(§3) To produce a suitable preparation of active compound, 1 part by weight of active compound is mixed with the stated amount of solvent, the stated amount of emulsifier is added and the concentrate is diluted with water to the desired concentration.
(§4) Seeds of the test plants are sown in normal soil. After about 24 hours, the soil is sprayed with the preparation of active compounds such that the particular amounts of active compound desired are applied per unit area. The concentration of the spray liquor is chosen so that the particular amounts of active compound desired are applied in 1000 l of water/ha.
(§5) After three weeks, the degree of damage to the plants is rated in % damage in comparison to the development of the untreated control.
(§6) 0%=no effect (like untreated control)

[2] = tested on: crop plants, such as, for example, barley and cotton; test: Pre-emergence test, tolerance by crop plants; format: in vivo; details: rated after three weeks
Experimental: as §1, §2, §3, §4, §5, §6

[3] = tested on: weeds; test: Post-emergence test, activity against weeds; format: in vivo; details: test plants of a height of 5-15 cm sprayed, rated after three weeks vs untreated control
Experimental: as §1, §2
To produce a suitable preparation of active compound, 1 part by weight of active compound is mixed with the stated amount of solvent, the stated amount of emulsifiers is added and the concentrate is diluted with water to the desired concentration.
Test plants of a height of 5-15 cm are sprayed with the preparation of active compound such that the particular amounts of active compound are employed per unit area. The concentration of the spray liquor is chosen so that the particular amounts of active compound desired are applied in 1000 l of water/ha.
as §5, §6

Row | SMILES | melting point [°C] | activity against weeds (degree of damage to the plants) [1] | tolerance by crop plants [2] | activity against weeds (degree of damage to the plants) [3]
1 | CCS(=O)(=O)Nc1cc(COc2ccc(-n3c(=O)cc(C(F)(F)F)n(C)c3=O)c(F)c2)ccc1Cl [Example 5, 1-[2-fluoro-4-(4-chloro-3-ethylsulphonylamino-benzyloxy)-phenyl]-3-methyl-4-trifluoromethyl-3,6-dihydro-2,6-dioxo-1(2H)-pyrimidine] | 151 | very strong activity | tolerated well | very strong activity
2 | O=c1cc(C(F)(F)F)[nH]c(=O)n1-c1ccc(OCc2ccc(Cl)c([N+](=O)[O-])c2)cc1F [Example 1, 1-[2-fluoro-4-(4-chloro-3-nitro-benzyloxy)-phenyl]-4-trifluoromethyl-3,6-dihydro-2,6-dioxo-1(2H)-pyrimidine] | 165 | – | – | –
3 | Cn1c(C(F)(F)F)cc(=O)n(-c2ccc(OCc3ccc(Cl)c(N)c3)cc2F)c1=O [Example 4, 1-[2-fluoro-4-(3-amino-4-chloro-benzyloxy)-phenyl]-3-methyl-4-trifluoromethyl-3,6-dihydro-2,6-dioxo-1 (2H)-pyrimidine] | 148 | – | – | very strong activity

The next lines start with results.

Row | melting point [°C] | SMILES | activity against weeds (degree of damage to the plants) [1] | tolerance by crop plants [2] | activity against weeds (degree of damage to the plants) [3]
4 | 185 | Nn1c(C(F)(F)F)cc(=O)n(-c2ccc(OCc3ccc(Cl)c([N+](=O)[O-])c3)cc2F)c1=O [Example 3, 3-amino-1-[2-fluoro-4-(4-chloro-3-nitro-benzyl-oxy)-phenyl]-4-trifluoromethyl-3,6-dihydro-2,6-dioxo-1(2H)-pyrimidine] | – | – | very strong activity
5 | 133 | Cn1c(C(F)(F)F)cc(=O)n(-c2ccc(OCc3ccc(Cl)c([N+](=O)[O-])c3)cc2F)c1=O [Example 2, 1-[2-fluoro-4-(4-chloro-3-nitro-benzyloxy)-phenyl]-3-methyl-4-trifluoromethyl-3,6-dihydro-2,6-dioxo-1 (2H)-pyrimidine] | – | – | very strong activity
